Experimental data as given in patent US20170320870A1 (Medical Research Council Technology, priority 2009, published 2017).

Assays:
Assay in all cases: Kinase selectivity: percentage inhibition of each specific kinase at 1 μM inhibitor concentration
Format in all cases: biochemical
[1] = molecular target: each specific kinase (kinase selectivity panel, Table 2) (Homo sapiens, UniProt P17252); conditions: PKCa
Experimental: (§1) Values are expressed as percentage inhibition of the each specific kinase at 1 μM inhibitor concentration.

[2] = molecular target: each specific kinase (kinase selectivity panel, Table 2) (Homo sapiens, UniProt Q13188); conditions: MST2
Experimental: as §1

[3] = molecular target: each specific kinase (kinase selectivity panel, Table 2) (Homo sapiens, UniProt P31749); conditions: PKBa
Experimental: as §1

[4] = molecular target: each specific kinase (kinase selectivity panel, Table 2) (Homo sapiens, UniProt O00418); conditions: EF2K
each specific kinase (kinase selectivity panel, Table 2) (Homo sapiens, UniProt O00418), sequence (O00418 whole entry): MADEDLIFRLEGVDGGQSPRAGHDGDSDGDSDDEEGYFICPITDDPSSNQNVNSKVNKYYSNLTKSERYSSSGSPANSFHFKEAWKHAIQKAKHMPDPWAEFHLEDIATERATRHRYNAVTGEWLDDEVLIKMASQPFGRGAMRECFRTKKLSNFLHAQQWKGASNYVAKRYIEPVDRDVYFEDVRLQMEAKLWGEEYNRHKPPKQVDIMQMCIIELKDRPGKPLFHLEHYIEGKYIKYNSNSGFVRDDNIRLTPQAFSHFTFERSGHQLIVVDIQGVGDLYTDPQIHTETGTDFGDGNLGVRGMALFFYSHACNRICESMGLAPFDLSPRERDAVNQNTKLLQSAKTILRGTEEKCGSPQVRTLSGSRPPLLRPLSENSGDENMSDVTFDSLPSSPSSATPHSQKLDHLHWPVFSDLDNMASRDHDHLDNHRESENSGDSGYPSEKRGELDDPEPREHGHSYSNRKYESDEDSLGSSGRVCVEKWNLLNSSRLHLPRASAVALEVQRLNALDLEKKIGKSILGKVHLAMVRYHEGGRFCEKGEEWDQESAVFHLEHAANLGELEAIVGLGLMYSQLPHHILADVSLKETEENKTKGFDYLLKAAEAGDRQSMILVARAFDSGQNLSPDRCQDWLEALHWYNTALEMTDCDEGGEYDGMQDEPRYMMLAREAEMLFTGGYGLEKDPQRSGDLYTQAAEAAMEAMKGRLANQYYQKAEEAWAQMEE
Experimental: as §1

[5] = molecular target: each specific kinase (kinase selectivity panel, Table 2) (Homo sapiens, UniProt O60285); conditions: NUAK1
Experimental: as §1

[6] = molecular target: each specific kinase (kinase selectivity panel, Table 2) (Homo sapiens, UniProt Q13233); conditions: MEKK1
each specific kinase (kinase selectivity panel, Table 2) (Homo sapiens, UniProt Q13233), sequence (Q13233 whole entry): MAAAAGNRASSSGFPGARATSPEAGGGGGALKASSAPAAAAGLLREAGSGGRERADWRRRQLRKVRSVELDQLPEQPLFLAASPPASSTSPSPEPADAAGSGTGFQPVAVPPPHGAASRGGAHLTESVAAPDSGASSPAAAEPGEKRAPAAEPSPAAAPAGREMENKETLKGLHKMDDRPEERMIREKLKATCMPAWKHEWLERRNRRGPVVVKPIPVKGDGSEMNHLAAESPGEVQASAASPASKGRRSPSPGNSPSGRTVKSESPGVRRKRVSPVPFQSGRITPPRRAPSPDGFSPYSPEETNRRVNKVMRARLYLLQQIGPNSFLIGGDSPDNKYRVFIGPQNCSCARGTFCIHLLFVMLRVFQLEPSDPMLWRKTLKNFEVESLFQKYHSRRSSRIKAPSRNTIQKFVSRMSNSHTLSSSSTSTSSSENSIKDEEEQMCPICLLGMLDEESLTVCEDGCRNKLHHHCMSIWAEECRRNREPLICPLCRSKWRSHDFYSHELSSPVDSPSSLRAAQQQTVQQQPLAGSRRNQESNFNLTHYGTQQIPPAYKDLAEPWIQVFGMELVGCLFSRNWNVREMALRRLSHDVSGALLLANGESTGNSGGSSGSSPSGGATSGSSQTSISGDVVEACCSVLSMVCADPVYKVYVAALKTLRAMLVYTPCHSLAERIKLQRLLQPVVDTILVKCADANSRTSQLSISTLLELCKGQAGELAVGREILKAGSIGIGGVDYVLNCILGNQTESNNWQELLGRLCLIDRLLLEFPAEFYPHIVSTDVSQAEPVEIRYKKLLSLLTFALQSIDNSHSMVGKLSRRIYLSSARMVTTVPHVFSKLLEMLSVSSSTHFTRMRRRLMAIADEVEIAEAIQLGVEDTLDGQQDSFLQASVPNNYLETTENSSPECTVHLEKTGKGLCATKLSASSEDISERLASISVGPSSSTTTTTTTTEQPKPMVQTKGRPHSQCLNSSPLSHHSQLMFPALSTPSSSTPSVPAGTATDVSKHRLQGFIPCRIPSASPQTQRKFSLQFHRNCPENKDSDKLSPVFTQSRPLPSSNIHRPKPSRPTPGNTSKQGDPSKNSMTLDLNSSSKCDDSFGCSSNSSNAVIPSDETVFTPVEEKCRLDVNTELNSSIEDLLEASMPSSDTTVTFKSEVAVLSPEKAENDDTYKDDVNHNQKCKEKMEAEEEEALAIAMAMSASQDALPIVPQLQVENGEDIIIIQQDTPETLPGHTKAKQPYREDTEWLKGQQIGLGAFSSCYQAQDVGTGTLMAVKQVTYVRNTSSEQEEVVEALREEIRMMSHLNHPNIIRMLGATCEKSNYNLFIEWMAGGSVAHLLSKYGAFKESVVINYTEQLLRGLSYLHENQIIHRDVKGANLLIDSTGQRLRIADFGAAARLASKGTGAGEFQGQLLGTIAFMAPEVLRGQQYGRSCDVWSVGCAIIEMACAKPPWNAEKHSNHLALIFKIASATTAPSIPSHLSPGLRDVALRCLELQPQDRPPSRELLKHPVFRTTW
Experimental: as §1

[7] = molecular target: each specific kinase (kinase selectivity panel, Table 2) (Homo sapiens, UniProt P80192); conditions: MLK1
Experimental: as §1

[8] = molecular target: each specific kinase (kinase selectivity panel, Table 2) (Homo sapiens, UniProt P53350); conditions: PLK1
Experimental: as §1

[9] = molecular target: each specific kinase (kinase selectivity panel, Table 2) (Homo sapiens, UniProt P51955); conditions: NEK2a
Experimental: as §1

[10] = molecular target: each specific kinase (kinase selectivity panel, Table 2) (Homo sapiens, UniProt O14757); conditions: CHK1
Experimental: as §1

[11] = molecular target: each specific kinase (kinase selectivity panel, Table 2) (Homo sapiens, UniProt P11362); conditions: FGF-R1
each specific kinase (kinase selectivity panel, Table 2) (Homo sapiens, UniProt P11362), sequence (P11362 22-822): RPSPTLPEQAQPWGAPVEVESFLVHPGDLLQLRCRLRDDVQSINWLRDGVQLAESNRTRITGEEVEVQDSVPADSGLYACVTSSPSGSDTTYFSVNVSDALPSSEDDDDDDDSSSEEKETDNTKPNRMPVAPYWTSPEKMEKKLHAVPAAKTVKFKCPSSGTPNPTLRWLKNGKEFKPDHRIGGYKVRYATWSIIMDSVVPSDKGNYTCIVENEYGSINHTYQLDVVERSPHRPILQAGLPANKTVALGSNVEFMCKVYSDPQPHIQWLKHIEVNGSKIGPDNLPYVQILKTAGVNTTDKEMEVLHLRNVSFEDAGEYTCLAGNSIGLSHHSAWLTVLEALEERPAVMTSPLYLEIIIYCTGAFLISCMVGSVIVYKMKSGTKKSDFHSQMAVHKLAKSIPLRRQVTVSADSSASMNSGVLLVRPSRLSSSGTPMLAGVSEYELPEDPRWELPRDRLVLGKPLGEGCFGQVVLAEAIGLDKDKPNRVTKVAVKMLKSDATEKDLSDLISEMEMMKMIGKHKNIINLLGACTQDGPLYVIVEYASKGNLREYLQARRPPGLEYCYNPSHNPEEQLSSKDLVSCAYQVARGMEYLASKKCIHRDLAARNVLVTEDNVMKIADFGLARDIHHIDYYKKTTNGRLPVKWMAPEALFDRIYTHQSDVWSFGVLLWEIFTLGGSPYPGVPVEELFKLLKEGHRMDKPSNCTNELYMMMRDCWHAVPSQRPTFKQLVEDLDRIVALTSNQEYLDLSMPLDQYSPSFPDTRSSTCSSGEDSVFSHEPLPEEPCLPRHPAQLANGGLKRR
Experimental: as §1

[12] = molecular target: each specific kinase (kinase selectivity panel, Table 2) (Homo sapiens, UniProt O96017); conditions: CHK2
Experimental: as §1

[13] = molecular target: each specific kinase (kinase selectivity panel, Table 2) (Homo sapiens, UniProt Q9BUB5); conditions: MNK1
Experimental: as §1

[14] = molecular target: each specific kinase (kinase selectivity panel, Table 2) (Homo sapiens, UniProt Q8N4C8); conditions: MINK1
Experimental: as §1

[15] = molecular target: each specific kinase (kinase selectivity panel, Table 2) (Homo sapiens, UniProt O14965); conditions: Aurora A
Experimental: as §1

[16] = molecular target: each specific kinase (kinase selectivity panel, Table 2) (Homo sapiens, UniProt P06213); conditions: IR
Experimental: as §1

[17] = molecular target: each specific kinase (kinase selectivity panel, Table 2) (Homo sapiens, UniProt P49841); conditions: GSK3b
each specific kinase (kinase selectivity panel, Table 2) (Homo sapiens, UniProt P49841), sequence (P49841 whole entry): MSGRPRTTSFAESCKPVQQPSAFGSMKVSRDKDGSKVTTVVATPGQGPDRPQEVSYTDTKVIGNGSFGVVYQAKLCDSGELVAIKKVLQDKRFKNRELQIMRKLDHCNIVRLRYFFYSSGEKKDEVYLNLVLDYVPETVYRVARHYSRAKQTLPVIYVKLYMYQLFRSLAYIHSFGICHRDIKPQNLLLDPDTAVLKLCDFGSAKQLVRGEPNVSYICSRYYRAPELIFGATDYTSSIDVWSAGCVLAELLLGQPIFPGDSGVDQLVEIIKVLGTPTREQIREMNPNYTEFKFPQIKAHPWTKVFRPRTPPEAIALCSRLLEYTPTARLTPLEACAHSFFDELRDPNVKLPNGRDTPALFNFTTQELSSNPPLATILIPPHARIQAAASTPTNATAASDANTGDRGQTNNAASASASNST
Experimental: as §1

[18] = molecular target: each specific kinase (kinase selectivity panel, Table 2) (Homo sapiens, UniProt Q05513); conditions: PKCz
Experimental: as §1

[19] = molecular target: each specific kinase (kinase selectivity panel, Table 2) (Homo sapiens, UniProt Q96SB4); conditions: SRPK1
Experimental: as §1

[20] = molecular target: each specific kinase (kinase selectivity panel, Table 2) (Homo sapiens, UniProt P41240); conditions: CSK
Experimental: as §1

[21] = molecular target: each specific kinase (kinase selectivity panel, Table 2) (Homo sapiens, UniProt O43353); conditions: RIPK2
Experimental: as §1

[22] = molecular target: each specific kinase (kinase selectivity panel, Table 2) (Rattus norvegicus, UniProt Q62868); conditions: ROCK 2
Experimental: as §1

[23] = molecular target: each specific kinase (kinase selectivity panel, Table 2) (Homo sapiens, UniProt P29317); conditions: EPH-A2
Experimental: as §1

[24] = molecular target: each specific kinase (kinase selectivity panel, Table 2) (Homo sapiens, UniProt Q13627); conditions: DYRK1A
Experimental: as §1

[25] = molecular target: each specific kinase (kinase selectivity panel, Table 2) (Homo sapiens, UniProt Q16584); conditions: MLK3
Experimental: as §1

[26] = molecular target: each specific kinase (kinase selectivity panel, Table 2) (Homo sapiens, UniProt O15530); conditions: PDK1
Experimental: as §1

[27] = molecular target: each specific kinase (kinase selectivity panel, Table 2) (Homo sapiens, UniProt Q16513); conditions: PRK2
Experimental: as §1

[28] = molecular target: each specific kinase (kinase selectivity panel, Table 2) (Homo sapiens, UniProt P14616); conditions: IRR
Experimental: as §1

[29] = molecular target: each specific kinase (kinase selectivity panel, Table 2) (Homo sapiens, UniProt O60674); conditions: JAK2
Experimental: as §1

[30] = molecular target: each specific kinase (kinase selectivity panel, Table 2) (Homo sapiens, UniProt P43405); conditions: SYK
Experimental: as §1

[31] = molecular target: each specific kinase (kinase selectivity panel, Table 2) (Homo sapiens, UniProt Q96RR4); conditions: CAMKKb
Experimental: as §1

[32] = molecular target: each specific kinase (kinase selectivity panel, Table 2) (Homo sapiens, UniProt P04629); conditions: TrkA
each specific kinase (kinase selectivity panel, Table 2) (Homo sapiens, UniProt P04629), sequence (P04629 33-796): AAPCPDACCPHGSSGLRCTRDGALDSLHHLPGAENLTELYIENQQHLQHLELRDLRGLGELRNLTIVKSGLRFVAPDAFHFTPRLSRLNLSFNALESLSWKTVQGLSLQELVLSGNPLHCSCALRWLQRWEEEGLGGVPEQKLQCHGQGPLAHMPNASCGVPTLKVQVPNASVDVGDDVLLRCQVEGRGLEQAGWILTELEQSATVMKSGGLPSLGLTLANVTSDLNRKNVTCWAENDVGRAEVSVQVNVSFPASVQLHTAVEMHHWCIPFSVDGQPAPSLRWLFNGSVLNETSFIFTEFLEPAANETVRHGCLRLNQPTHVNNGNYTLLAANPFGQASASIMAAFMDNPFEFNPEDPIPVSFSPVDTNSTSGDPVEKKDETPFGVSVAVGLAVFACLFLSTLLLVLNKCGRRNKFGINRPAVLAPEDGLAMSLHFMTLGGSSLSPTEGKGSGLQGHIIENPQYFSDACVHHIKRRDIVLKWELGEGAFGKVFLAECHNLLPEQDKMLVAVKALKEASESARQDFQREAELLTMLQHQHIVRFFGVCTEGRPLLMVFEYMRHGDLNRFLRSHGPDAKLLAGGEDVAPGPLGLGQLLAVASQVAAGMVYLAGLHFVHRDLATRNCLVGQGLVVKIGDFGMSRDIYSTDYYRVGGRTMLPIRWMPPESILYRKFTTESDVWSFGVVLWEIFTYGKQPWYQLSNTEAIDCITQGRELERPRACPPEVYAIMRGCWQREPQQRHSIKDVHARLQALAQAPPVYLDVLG
Experimental: as §1

[33] = molecular target: each specific kinase (kinase selectivity panel, Table 2) (Homo sapiens, UniProt P31751); conditions: PKBb
Experimental: as §1

[34] = molecular target: each specific kinase (kinase selectivity panel, Table 2) (Homo sapiens, UniProt P45984); conditions: JNK2
Experimental: as §1

SMILES	percentage inhibition of PKCa [1] [percentage]	percentage inhibition of MST2 [2] [percentage]	percentage inhibition of PKBa [3] [percentage]	percentage inhibition of EF2K [4] [percentage]	percentage inhibition of NUAK1 [5] [percentage]	percentage inhibition of MEKK1 [6] [percentage]	percentage inhibition of MLK1 [7] [percentage]	percentage inhibition of PLK1 [8] [percentage]	percentage inhibition of NEK2a [9] [percentage]	percentage inhibition of CHK1 [10] [percentage]	percentage inhibition of FGF-R1 [11] [percentage]	percentage inhibition of CHK2 [12] [percentage]	percentage inhibition of MNK1 [13] [percentage]	percentage inhibition of MINK1 [14] [percentage]	percentage inhibition of Aurora A [15] [percentage]	percentage inhibition of IR [16] [percentage]	percentage inhibition of GSK3b [17] [percentage]	percentage inhibition of PKCz [18] [percentage]	percentage inhibition of SRPK1 [19] [percentage]	percentage inhibition of CSK [20] [percentage]	also measured
CC[C@H](C)Oc1nccc2[nH]nc(C)c12 [Example 121, 4-((S)-sec-Butoxy)-3-methyl-1H-pyrazolo[4,3-c]pyridine]	2	55	19	0	59	0	19	19	0	10	36	13	1	17	46	8	25	0	21	6	percentage inhibition of RIPK2 [21]: 1 percentage; percentage inhibition of ROCK 2 [22]: 57 percentage; percentage inhibition of EPH-A2 [23]: 8 percentage; percentage inhibition of DYRK1A [24]: 27 percentage; percentage inhibition of MLK3 [25]: 23 percentage; percentage inhibition of PDK1 [26]: 13 percentage; percentage inhibition of PRK2 [27]: 39 percentage; percentage inhibition of IRR [28]: 22 percentage; percentage inhibition of JAK2 [29]: 47 percentage; percentage inhibition of SYK [30]: 0 percentage; percentage inhibition of CAMKKb [31]: 12 percentage; percentage inhibition of TrkA [32]: 26 percentage; percentage inhibition of PKBb [33]: 3 percentage; percentage inhibition of JNK2 [34]: 0 percentage
O=C(CCc1n[nH]c2ccnc(NC3CCCCC3)c12)N1CCC[C@H](c2ccccc2)C1 [Example 172, 3-(4-Cyclohexylamino-1H-pyrazolo[4,3-c]pyridin-3-yl)-1-((R)-3-phenyl-piperidin-1-yl)-propan-1-one]	0	10	0	0	14	7	13	3	5	0	0	40	0	18	0	4	5	10	17	11	percentage inhibition of RIPK2 [21]: 0 percentage; percentage inhibition of ROCK 2 [22]: 7 percentage; percentage inhibition of EPH-A2 [23]: 0 percentage; percentage inhibition of DYRK1A [24]: 27 percentage; percentage inhibition of MLK3 [25]: 29 percentage; percentage inhibition of PDK1 [26]: 0 percentage; percentage inhibition of PRK2 [27]: 16 percentage; percentage inhibition of IRR [28]: 15 percentage; percentage inhibition of JAK2 [29]: 12 percentage; percentage inhibition of SYK [30]: 4 percentage; percentage inhibition of CAMKKb [31]: 21 percentage; percentage inhibition of TrkA [32]: 5 percentage; percentage inhibition of PKBb [33]: 0 percentage; percentage inhibition of JNK2 [34]: 22 percentage
